Source: patent US7288541B2, “Propylcarbamate derivatives as inhibitors of serine and cysteine proteases” (SmithKline Beecham Corporation, priority 2001, dated 2007)

What follows are molecules tested against T1, human cathepsin K (Homo sapiens, UniProt P43235) (assay: Cathepsin K inhibition, fluorogenic substrate Cbz-Phe-Arg-AMC, progress curve method). Settings: not given.
T1 construct: The proform of cathepsin K was converted to mature cathepsin K by brief exposure to pH 4; made in house; host or cells: baculovirus; Trichoplusia ni High Five cells (virus raised in Sf-9)
T1 sequence (P43235 115-329): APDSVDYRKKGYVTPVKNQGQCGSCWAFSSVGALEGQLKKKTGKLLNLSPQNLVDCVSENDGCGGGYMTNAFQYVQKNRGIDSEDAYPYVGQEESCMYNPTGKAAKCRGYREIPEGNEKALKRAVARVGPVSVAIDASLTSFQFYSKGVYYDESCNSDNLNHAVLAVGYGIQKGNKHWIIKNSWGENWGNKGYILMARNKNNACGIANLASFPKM
Type: biochemical
Procedure: All assays for cathepsin K were carried out with human and rat recombinant enzyme. Assays for cathepsins S & V were also carried out with human recombinant enzyme. Assays for human cathepsins B, H, and L were carried out with enzyme prepared from human liver tissue. […] A stock substrate solution of Cbz-Phe-Arg-AMC was prepared at a concentration of 50 mM in dimethyl sulfoxide. This substrate was diluted into the assay for a final substrate concentration of 10 μM in the rat cathepsin K, human cathepsin K, and human cathepsin B assays; a final substrate concentration of 5 μM in the human cathepsin L assay; and a final substrate concentration of 2 μM in the human cathepsin V assay.
All assays contained 10% dimethyl sulfoxide. […] All assays were conducted at 30° C. Product fluorescence (excitation at 360 nm; emission at 440 nm, (except cathepsin H which used excitation at 340 nm; emission at 420 nm)) was monitored with a PerSeptive Biosystems Cytofluor II fluorescence plate reader. Product progress curves were generated over 2.3 h monitoring the formation of 7-amino-4-methylcoumarin product (or β-naphthalamide for cathepsin H).
Human and Rat Cathepsin K:
The cells continued to grow for 72 h post-infection, before the virus was harvested by centrifugation at 1400×g for 30 min.
One and one-half liters of Trichoplusia ni (T. ni) High Five (TM) cells [JRH Biosciences, Woodland, Calif. […] The cells were grown for 24 h at 28° C., 50 RPM, and 50% dissolved oxygen. […] Media were separated from cells at a rate of 1 L/min using the Centritech 100 (TM) continuous-flow centrifuge (DuPont) operating at 200×g.
Protein Purification: Media (human and rat) were filtered through a Whatman 3 filter, and then loaded onto a 25 mL Poros HS II (26 mm×47 mm) cation exchange column equilibrated in 25 mM sodium acetate at pH 5.5 (equilibration buffer). The column was washed until the absorbance reached the baseline value, and then the protein was eluted with a linear gradient from 0–2 M sodium chloride in the equilibration buffer. Column fractions were analyzed by SDS-PAGE, N-terminal sequencing, and mass spectrometry. Fractions containing the proform of cathepsin K were pooled and frozen at −80° C. The proform was concentrated in an Amicon Centriprep 10 and fractionated with a Superdex 75 column (26 mm×600 mm, Pharmacia) equilibrated in 400 mM sodium chloride, 25 mM sodium acetate at pH 5.5.
Cathepsin K Activation: The proform of cathepsin K was converted to mature cathepsin K by brief exposure to pH 4 in the presence of 5 mM L-cysteine. Typically, 5 mM L-cysteine was added to 10 mL of approximately 1 mg/mL procathepsin K. One mL of this solution was diluted ten-fold into 450 mM sodium acetate at pH 4.0 containing 5 mM L-cysteine. This solution was reacted at 23° C. for 2 min before neutralization with 2 mL 1.8 M sodium acetate at pH 6.0. The neutralized sample was added to the remaining 9 mL of procathepsin K. The mixture was incubated at 4° C. for 2–3 days. The activated cathepsin K was chromatographed on a Poros HS II column as described above.
Potential inhibitors were evaluated using the progress curve method. Assays were carried out in the presence of variable concentrations of test compound. Reactions were initiated by addition of buffered solutions of inhibitor and substrate to enzyme. Data analysis was conducted according to one of two procedures depending on the appearance of the progress curves in the presence of inhibitors. […] Ki values were calculated from IC50 values using equation 2 assuming a competitive model.
For `CCCC[C@H](NC(=O)O[C@H](Cn1ccc(-c2ccc(C(F)(F)F)cc2)n1)C(C)(C)C)C(=O)CNC(=O)N1CCOCC1` [Example 4, (1S)-2,2-dimethyl-1-({3-[4-(trifluoromethyl)phenyl]-1H-pyrazol-1-yl}methyl)propyl (1S)-1-{[(4-morpholinylcarbonyl)amino]acetyl}pentylcarbamate], the IC50 was 1000 to 10000 nM.

Same assay, conditions: Table 1, Inhibition of Cathepsin K (Ki in nM); recombinant human enzyme, 10 μM substrate, pH 5.5, 30° C.; read-out: hCat K IC50
`CC(C)(C)[C@@H](Cn1cnc2cc(Cl)c(Cl)cc21)OC(=O)NCC(=O)CNS(=O)(=O)c1ccccn1` [Example 17, (1S)-1-[(5,6-dichloro-1H-benzimidazol-1-yl)methyl]-2,2-dimethylpropyl 2-oxo-3-[(2-pyridinylsulfonyl)amino]propylcarbamate] gave an IC50 of under 10 nM. In the case of `C[C@H](NC(=O)O[C@H](Cn1ccc(-c2ccc(C(F)(F)F)cc2)n1)C(C)(C)C)C(=O)CNS(=O)(=O)c1ccccn1` [Example 2, (1S)-2,2-dimethyl-1-({3-[4-(trifluoromethyl)phenyl]-1H-pyrazol-1-yl}methyl)propyl (1S)-1-methyl-2-oxo-3-[(2-pyridinylsulfonyl)amino]propylcarbamate], the IC50 is reported as 10 to 100 nM. For `CC(C)(C)[C@@H](Cn1ccc(-c2ccc(C(F)(F)F)cc2)n1)OC(=O)NCC(=O)CNS(=O)(=O)c1ccccn1` [Example 1, (1S)-2,2-dimethyl-1-({3-[4-(trifluoromethyl)phenyl]-1H-pyrazol-1-yl}methyl)propyl 2-oxo-3-[(2-pyridinylsulfonyl)amino]propylcarbamate], the IC50 was 10 to 100 nM. Molecule `CCCC[C@H](NC(=O)O[C@H](Cn1nccc1-c1ccc(C(F)(F)F)cc1)C(C)(C)C)C(=O)CNS(=O)(=O)c1ccccn1` [Example 12, (1S)-2,2-dimethyl-1-({5-[4-(trifluoromethyl)phenyl]-1H-pyrazol-1-yl}methyl)propyl (1S)-1-{[(2-pyridinylsulfonyl)amino]acetyl}pentylcarbamate] has an IC50 of 10 to 100 nM. With `CCCC[C@H](NC(=O)O[C@H](Cn1cnc(-c2ccc(C(F)(F)F)cc2)c1)C(C)(C)C)C(=O)CNS(=O)(=O)c1ccccn1` [Example 18, (1S)-2,2-dimethyl-1-({4-[4-(trifluoromethyl)phenyl]-1H-imidazol-1-yl}methyl)propyl (1S)-1-{[(2-pyridinylsulfonyl)amino]acetyl}pentylcarbamate] the IC50 was under 10 nM. Molecule `CCCC[C@H](NC(=O)O[C@H](Cn1ccc(C(F)(F)F)n1)C(C)(C)C)C(=O)CNS(=O)(=O)c1ccccn1` [Example 7, (1S)-2,2-dimethyl-1-{[3-(trifluoromethyl)-1H-pyrazol-1-yl]methyl}propyl (1S)-1-{[(2-pyridinylsulfonyl)amino]acetyl}pentylcarbamate] has an IC50 of 10 to 100 nM. `C[C@H](NC(=O)O[C@H](c1nc2cc(C(F)(F)F)ccc2s1)C(C)(C)C)C(=O)CNS(=O)(=O)c1ccccn1` [Example 10, (1S)-2,2-dimethyl-1-[5-(trifluoromethyl)-1,3-benzothiazol-2-yl]propyl (1S)-1-methyl-2-oxo-3-[(2-pyridinylsulfonyl)amino]propylcarbamate] was tested, and the IC50 was 100 to 1000 nM. Molecule `CCCC[C@H](NC(=O)O[C@H](Cn1ccc(-c2cccnc2)n1)C(C)(C)C)C(=O)CNS(=O)(=O)c1ccccn1` [Example 13, (1S)-2,2-dimethyl-1-{[3-(3-pyridinyl)-1H-pyrazol-1-yl]methyl}propyl (1S)-1-{[(2-pyridinylsulfonyl)amino]acetyl}pentylcarbamate] has an IC50 of under 10 nM. `CCCC[C@H](NC(=O)O[C@H](Cn1ccc(-c2ccc(C(F)(F)F)cc2)n1)C(C)(C)C)C(=O)CNS(=O)(=O)c1ccccn1` [Example 3, (1S)-2,2-dimethyl-1-({3-[4-(trifluoromethyl)phenyl]-1H-pyrazol-1-yl}methyl)propyl (1S)-1-{[(2-pyridinylsulfonyl)amino]acetyl}pentylcarbamate] gave an IC50 of 10 to 100 nM. `CCCC[C@H](NC(=O)O[C@H](c1nc2cc(C(F)(F)F)ccc2s1)C(C)(C)C)C(=O)CNS(=O)(=O)c1ccccn1` [Example 9, (1S)-2,2-dimethyl-1-[5-(trifluoromethyl)-1,3-benzothiazol-2-yl]propyl (1S)-1-{[(2-pyridinylsulfonyl)amino]acetyl}pentylcarbamate] was tested, and the IC50 was 10 to 100 nM. `CCCC[C@H](NC(=O)O[C@H](Cn1ccc(-c2ccncc2)n1)C(C)(C)C)C(=O)CNS(=O)(=O)c1ccccn1` [Example 14, (1S)-2,2-dimethyl-1-{[3-(4-pyridinyl)-1H-pyrazol-1-yl]methyl}propyl (1S)-1-{[(2-pyridinylsulfonyl)amino]acetyl}pentylcarbamate] was tested, and the IC50 was under 10 nM. `CCCC[C@H](NC(=O)O[C@H](Cn1ccc(-c2ccc(C(F)(F)F)cc2)n1)C(C)(C)C)C(=O)CNc1cccc(F)n1` [Example 5, (1S)-2,2-dimethyl-1-({3-[4-(trifluoromethyl)phenyl]-1H-pyrazol-1-yl}methyl)propyl (1S)-1-{[(6-fluoro-2-pyridinyl)amino]acetyl}pentylcarbamate] gave an IC50 of under 10 nM. Work on `CCCC[C@H](NC(=O)O[C@H](COc1ccc(-n2ccnc2)cc1)C(C)(C)C)C(=O)CNS(=O)(=O)c1ccccn1` [Example 19, (1S)-1-{[4-(1H-imidazol-1-yl)phenoxy]methyl}-2,2-dimethylpropyl (1S)-1-{[(2-pyridinylsulfonyl)amino]acetyl}pentylcarbamate] yielded an IC50 of under 10 nM. `CCCC[C@H](NC(=O)O[C@H](Cn1cnc2cc(Cl)c(Cl)cc21)C(C)(C)C)C(=O)CNS(=O)(=O)c1ccccn1` [Example 15, (1S)-1-[(5,6-dichloro-1H-benzimidazol-1-yl)methyl]-2,2-dimethylpropyl (1S)-1-{[(2-pyridinylsulfonyl)amino]acetyl}pentylcarbamate] gave an IC50 of under 10 nM. For `CCCC[C@H](NC(=O)O[C@H](Cn1cc(-c2ccc(C(F)(F)F)cc2)cn1)C(C)(C)C)C(=O)CNS(=O)(=O)c1ccccn1` [Example 11, (1S)-2,2-dimethyl-1-({4-[4-(trifluoromethyl)phenyl]-1H-pyrazol-1-yl}methyl)propyl (1S)-1-{[(2-pyridinylsulfonyl)amino]acetyl}pentylcarbamate], the IC50 was 10 to 100 nM. `C[C@H](NC(=O)O[C@H](Cn1ccc(C(F)(F)F)n1)C(C)(C)C)C(=O)CNS(=O)(=O)c1ccccn1` [Example 8, (1S)-2,2-dimethyl-1-{[3-(trifluoromethyl)-1H-pyrazol-1-yl]methyl}propyl (1S)-1-methyl-2-oxo-3-[(2-pyridinylsulfonyl)amino]propylcarbamate] was tested, and the IC50 was 100 to 1000 nM.
